Reference: US8586571B2, “Heterocyclic compound” (Takeda Pharmaceutical Company Limited, priority 2007, dated 2013)

Assays:
[1] = molecular target: human RBP4 (Homo sapiens (Human), UniProt P02753); test: Binding assay by Retinol-RBP4-TTR ELISA (human-type ELISA); conditions: inhibition of binding of RBP4 with retinol and TTR; retinol 0.5 μM; read-out: human RBP4 binding inhibitory activity (IC50 nM)
Experimental: The action of the compound of the present invention to inhibit binding of RBP4 and retinol and TTR was evaluated using the Retinol-RBP4-TTR ELISA (human-type ELISA) system shown below.
Binding Assay by Retinol-RBP4-TTR ELISA
This ELISA system detects a complex of retinol, RBP4 and TTR by Streptoavidin-Biotin reaction.
His-tagged human RBP4 used was prepared in the above-mentioned 1C.
Biotinylate human TTR used was prepared in the above-mentioned 1E.
Streptavidin (20 μl) (10 μg/ml Streptavidin type II (Wako Pure Chemical Industries, Ltd.), 10 mM Tris-HCl (pH 7.5), 10 mM NaCl) was added to a 384 well black maxisorp plate (Nunc), and the plate was subjected to centrifugation (1000 rpm, 1 min) and coated overnight at 4° C. The plate was washed twice with PBST (PBS, 0.05% Tween 20, 100 μl/well) and blocked with 25% Block Ace (Snow Brand Milk Products Co., Ltd., PBS, 100 μl/well). The plate was subjected to centrifugation (1000 rpm, 1 min) and incubated at room temperature for 4 hr or overnight at 4° C. The plate was washed twice with PEST (PBS, 0.05% Tween 20, 100 μl/well), and biotinylated human TTR (stock solution concentration 1.3 mg/ml) diluted 1000-fold with PBST was added at 20 μl/well. The plate was subjected to centrifugation (1000 rpm, 1 min) and stood still at room temperature for 1.5 hr or overnight at 4° C. The plate was washed 3 times with PBST (100 μl/well), and His-tagged human RBP4 (stock solution concentration 0.96 mg/ml) diluted 4000-fold with a reaction buffer (50 mM Tris-HCl, 150 mM NaCl, 0.005% Tween 20, 1 mM DTT, 0.1% BSA) was added at 10 μl/well. The dilution series (8 doses from 10 mM, 200-fold concentration) of the compound was prepared with DMSO, and 1 μl of each was added to a reaction buffer (200 μl) containing retinol (0.5 μM) (Sigma-Aldrich Co.). A reaction buffer (200 μl) containing retinol and added with DMSO was used as a positive control, and reaction buffer (200 μl) free of retinol and added with DMSO was used as a negative control. Mixed solutions of retinol and the compound were added to the plate at 15 μl/well. The mixture was stirred in a platemixer subjected to centrifugation (1000 rpm, 1 min) and reacted at room temperature for 2 hr. A 35% Block Ace solution diluted with the reaction buffer was added at 10 μl/well, centrifuged (1000 rpm, 1 min) and reacted at room temperature for 30 min. The plate was washed 3 times with PBST (100 μl/well) and SuperSignal ELISA Femto Maximum Sensitivity Substrate reagent (PIERCE) was added at 30 μl/well, and the luminescence was measured by a platereader (Wallac).
The binding inhibitory rate of the compound was determined by 100×(test compound value-negative control value)/(positive control value-negative control value). The binding activity (IC50) was calculated from the binding inhibitory rate at each compound concentration using a graph drawing software, Prism (GraphPad Software Inc.).

[2] = molecular target: RBP4 (Mus musculus (Mouse), UniProt Q00724); test: Blood RBP4 lowering action in C57BL/6J mouse (plasma RBP4 by ELISA); format: in vivo; conditions: mean±SD (n=5); for RBP4 (% of initial/Control) 4 hr later: 4 hr after single oral 50 mg/kg; for RBP4 (% of initial/Control) 7 hr later: 7 hr after single oral 50 mg/kg; for RBP4 (% of initial/Control) 24 hr later: 24 hr after single oral 50 mg/kg
Experimental: A blood RBP4 lowering action of the compound of the present invention was evaluated using C57BL/6J mouse.
Male 7- to 15-week-old C57BL/6J mice (Charles River Laboratories Japan Inc.) were individually bred for acclimation for 4-6 days under conditions with free access to CE-2 solid food (CLEA Japan, Inc.), and grouped based on the body weight (5 per group). The next day of grouping, blood samples were collected from the orbital venous plexus, and plasma was separated (0 hr value). Thereafter, the test compounds (Examples 12, 143, 164, 189, 197, 207 and 215) were orally administered at a dose of 50 mg/kg (solvent: 0.5% methylcellulose solution (10 mL/kg)). At 4, 7 and 24 hr after administration of the compounds, blood samples were collected from the orbital venous plexus, and plasma was separated. A 0.5% methylcellulose solution (10 mL/kg) was orally administered to the control group.
The RBP4 level of the collected plasma was measured by ELISA. RBP4 was quantified by the following steps using a rabbit anti-mouse RBP4 polyclonal antibody (Hokudo Co., Ltd). A 96 well ELISA plate was coated with 50 μg/mL of the antibody (100 μL) and stood at 4° C. overnight. After blocking with BlockAce (DAINIPPON PHARMACEUTICAL CO., LTD.), mouse RBP4 or a sample (100 μL) was added and the plate was stood at room temperature for 2 hr. After washing with PBS-0.5% Tween 20, HRP-labeled anti-RBP4 antibody (prepared by labeling RBP4 polyclonal antibody (Hokudo Co., Ltd) with HRP (DOJINDO LABORATORIES)) was added by 100 μL, and the plate was stood at room temperature for 1 hr. After washing, TMB (Dako Cytomations) was added, and the mixture was stood at room temperature for 20 min to allow color development, and the reaction was quenched with 2N sulfuric acid. Thereafter, the absorbance at A450 nm was measured on a platereader. The amount of change from the initial value of each animal was determined as a relative value from the control group (% of initial/Control) at each time point. The results are shown in the following in mean±standard deviation (n=5).

[3] = system: Zucker fa/fa rat; test: Anti-diabetes action using Zucker fa/fa rat (Takeda Pharmaceutical Company Limited); format: in vivo; conditions: oral 30 mg/kg for 2 weeks
Experimental: An anti-diabetes action and a blood triglyceride (hereinafter TG)-lowering action of the compound of the present invention were evaluated using Zucker fa/fa rats.
Male 7-week-old Zucker fa/fa rats (Takeda Pharmaceutical Company Limited) were bred in group on CE-2 solid food (CLEA Japan, Inc.) until 7-week-old, thereafter bred on high-fat diet D06110702 (LSG Corporation) for acclimation under conditions with free access to food. At 11-week-old, the rats were grouped based on the body weight, blood glucose level, glycated hemoglobin level, blood RBP4 level and blood insulin level value (6 per group). Thereafter, the test compound (Example 143) was orally administered at a dose of 30 mg/kg (solvent: 0.5% methylcellulose solution (5 mL/kg)) for 2 weeks. The next day of the final administration of the compound, blood samples were collected from the tail vein, and plasma was separated. Using the collected plasma, (1) RBP4 concentration and (2) glycated hemoglobin level were measured. (1) was quantified according to the protocol described in Experimental Example 2. (2) was measured using Tosoh Corporation automatic glycohemoglobin analyzer (HLC-723 GHbV A1c2.2 or HLC-723G7 GHbV A1c2.2).
A 0.5% methylcellulose solution (5 mL/kg) was orally administered to the control group. […] The results are shown in the is following in mean±standard deviation (n=6). In the following Table, glycated hemoglobin change is obtained by subtracting the value before administration from that after administration.

| SMILES | IC50 [1] [nM] | RBP4 (% of initial/Control) 4 hr later [2] | RBP4 (% of initial/Control) 7 hr later [2] | RBP4 (% of initial/Control) 24 hr later [2] | other results |
| --- | --- | --- | --- | --- | --- |
| CC(C)(C)c1cc(F)ccc1OC1CN(C(=O)c2ccccn2)C1 [Example 6, (3-(2-tert-butyl-4-fluorophenoxy)azetidin-1-yl)(pyridin-2-yl)methanone] | 20 |  |  |  |  |
| CC(C)(C)c1ccccc1OC1CN(C(=O)CC(=O)O)C1 [Example 10, 3-(3-(2-tert-butylphenoxy)azetidin-1-yl)-3-oxopropanoic acid] | 36 |  |  |  |  |
| CC(C)(C)c1ccccc1OC1CN(C(=O)C2(C(=O)O)CC2)C1 [Example 14, 1-(3-(2-tert-butylphenoxy)azetidine-1-carbonyl)cyclopropanecarboxylic acid] | 24 |  |  |  |  |
| CC(C)(C)c1ccccc1SC1CN(C(=O)c2ccccn2)C1 [Example 17, (3-(2-tert-butylphenylthio)azetidin-1-yl)(pyridin-2-yl)methanone] | 10 |  |  |  |  |
| CC(C)(C)c1ccccc1S(=O)(=O)C1CN(C(=O)c2ccccc2)C1 [Example 20, (3-(2-tert-butylphenylsulfonyl)azetidin-1-yl)(phenyl)methanone] | 290 |  |  |  |  |
| CC(C)(C)c1ccccc1OC1CCN(C(=O)c2ccccn2)CC1 [Example 50, (4-(2-tert-butylphenoxy)piperidin-1-yl)(pyridin-2-yl)methanone] | 5 |  |  |  |  |
| CC(C)(C)c1cc(F)ccc1OC1CN(C(=O)CCC(=O)O)C1 [Example 80, 4-[3-(2-tert-butyl-4-fluorophenoxy)azetidin-1-yl]-4-oxobutanoic acid] | 20 |  |  |  |  |
| CCCCCS(=O)(=O)NC(=O)C(=O)N1CCC(COc2ccccc2C(C)(C)C)CC1 [Example 121, 2-{4-[(2-tert-butylphenoxy)methyl]piperidin-1-yl}-2-oxo-N-(pentylsulfonyl)acetamide] | 790 |  |  |  |  |
| CC(C)(C)c1cc(F)ccc1OCC1CN(C(=O)CC(=O)O)C1 [Example 143, 3-{3-[(2-tert-butyl-4-fluorophenoxy)methyl]azetidin-1-yl}-3-oxopropanoic acid] | 23 | 46.7 ± 6.6 % of initial/Control | 36.2 ± 4.2 % of initial/Control | 45.2 ± 9.1 % of initial/Control | blood RBP4 concentration (result in words) ([3]; versus control): significant decrease; glycated hemoglobin (result in words) ([3]; versus control): significant decrease; RBP4 ([3]; plasma, high-fat diet, mean±SD (n=6)): 7.3 ± 1.2 µg/mL; glycated hemoglobin change(%) ([3]; value after minus before administration, mean±SD (n=6)): 0.6 ± 0.4% |
| CC(C)(C)c1cc(Cl)ccc1OC1CN(C(=O)c2ccccn2)C1 [Example 164, 2-{[3-(2-tert-butyl-4-chlorophenoxy)azetidin-1-yl]carbonyl}pyridine] | 15 | 55.6 ± 6.3 % of initial/Control | 46.4 ± 7.2 % of initial/Control | 74.5 ± 8.9 % of initial/Control |  |
| CC(C)(C)c1cc(Cl)ccc1OC1CN(C(=O)CCC(=O)O)C1 [Example 189, 4-[3-(2-tert-butyl-4-chlorophenoxy)azetidin-1-yl]-4-oxobutanoic acid] | 71 | 51.5 ± 1.7 % of initial/Control | 42.1 ± 1.3 % of initial/Control | 69.7 ± 9.6 % of initial/Control |  |
| CC(C)(C)c1ccccc1OCC1CCN(C(=O)CC(=O)O)C1 (stereo not drawn) [Example 197, 3-{3-[(2-tert-butylphenoxy)methyl]pyrrolidin-1-yl}-3-oxopropanoic acid] | 40 | 39.2 ± 1.4 % of initial/Control | 29.2 ± 1.0 % of initial/Control | 40.4 ± 3.0 % of initial/Control |  |
| CC(C)(C)c1cc(Cl)ccc1OCC1CN(C(=O)C(=O)O)C1 [Example 207, {3-[(2-tert-butyl-4-chlorophenoxy)methyl]azetidin-1-yl}(oxo)acetic acid] | 12 | 55.6 ± 1.0 % of initial/Control | 49.0 ± 1.3 % of initial/Control | 69.5 ± 6.6 % of initial/Control |  |
| CC(C)(C)c1cc(F)ccc1OCC1CCN(C(=O)CC(=O)O)C1 (stereo not drawn) [Example 215, 3-{3-[(2-tert-butyl-4-fluorophenoxy)methyl]pyrrolidin-1-yl}-3-oxopropanoic acid] | 34 | 64.3 ± 1.2 % of initial/Control | 60.6 ± 0.6 % of initial/Control | 64.7 ± 4.3 % of initial/Control |  |
